Measured values taken from US20110159019A1, “2,4-DIAMINOPYRIMIDINE COMPOUND” (priority 2008, published 2011).
Where a name gives a salt, the structure may show the parent alone.

molecular target: T1, Full-length human PKCθ (Homo sapiens, UniProt Q04759); test: Measurement of human PKCθ enzyme inhibition activity (HTRF KinEASE S1 kit); assay type: biochemical; conditions: full-length human PKCθ, ATP 30 μM, HTRF; read-out: IC50 (nM), human PKCθ enzyme inhibition
T1 construct: Full-length human PKCθ (Carna Biosciences, final 31 ng/mL); purchased Carna Biosciences
Method: Test Method 1: Measurement of Human PKCθ Enzyme Inhibition Activity
The test was carried out using a HTRF® KinEASE™ S1 kit (CIS bio). […] Then, 3 μL of an ATP liquid (final 30 μM) was dispensed therein to carry out an enzyme reaction at room temperature for 1 hour.
Ex represents Compound No. of Examples as described later.

T1 sequence (Q04759 whole entry): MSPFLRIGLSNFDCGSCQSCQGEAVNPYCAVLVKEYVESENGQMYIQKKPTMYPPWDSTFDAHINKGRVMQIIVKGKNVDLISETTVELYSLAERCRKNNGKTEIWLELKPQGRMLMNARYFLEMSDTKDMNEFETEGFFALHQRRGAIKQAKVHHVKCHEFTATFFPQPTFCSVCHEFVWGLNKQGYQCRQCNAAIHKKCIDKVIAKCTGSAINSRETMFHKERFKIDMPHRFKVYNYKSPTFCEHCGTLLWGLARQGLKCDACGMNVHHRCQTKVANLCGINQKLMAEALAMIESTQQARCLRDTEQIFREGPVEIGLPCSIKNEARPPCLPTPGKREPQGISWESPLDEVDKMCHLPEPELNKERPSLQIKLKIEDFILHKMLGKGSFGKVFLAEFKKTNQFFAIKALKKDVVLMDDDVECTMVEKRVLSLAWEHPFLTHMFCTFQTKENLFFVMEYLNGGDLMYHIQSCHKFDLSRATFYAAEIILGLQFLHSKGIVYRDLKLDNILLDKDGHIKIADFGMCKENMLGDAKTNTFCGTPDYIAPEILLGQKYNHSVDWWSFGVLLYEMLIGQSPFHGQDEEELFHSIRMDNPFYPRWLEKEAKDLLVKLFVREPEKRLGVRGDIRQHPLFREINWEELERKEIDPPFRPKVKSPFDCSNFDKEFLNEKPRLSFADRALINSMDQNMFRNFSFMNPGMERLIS

Structure (SMILES) | IC50 [nM]
N#Cc1cnc(NCc2ccccc2OC(F)(F)F)nc1NCC1CN2CCC1CC2 (centres unmarked) [Example 48] | 54
COc1ccccc1CNc1ncc(C#N)c(NC[C@]23CC4C[C@H](C2)[C@@H](NCC(CO)CO)[C@@H](C4)C3)n1 (relative stereo) [Example 194] | 6.5
COc1ccccc1CNc1ncc(C#N)c(NC[C@]23CC4C[C@H](C2)[C@@H](N(C)CCCCO)[C@@H](C4)C3)n1 [Example 107] | 5.4
N#Cc1cnc(NCc2ccccc2OC(F)(F)F)nc1NC[C@]12CC3C[C@H](C1)[C@@H](N[C@H]1CC[C@@H](NC4CCOCC4)CC1)[C@@H](C3)C2 (relative stereo) [Example 284] | 0.28
N#Cc1cnc(NCc2ccccc2Cl)nc1NC[C@]12CC3C[C@H](C1)[C@@H](NCCN1CCC(O)CC1)[C@@H](C3)C2 (relative stereo) [Example 208] | 1.6
N#Cc1cnc(NCc2ccccc2Cl)nc1NC[C@]12CC3C[C@H](C1)[C@@H](NC[C@H]1CC[C@H](CO)CC1)[C@@H](C3)C2 (relative stereo) [Example 341] | 1.7
N#Cc1cnc(NCc2ccccc2OC(F)(F)F)nc1NCC1CC2CCC(C1)N2 (centres unmarked) [Example 170, 4-[(8-azabicyclo[3.2.1]oct-3-ylmethyl)amino]-2-{[2-(trifluoromethoxy)benzyl]amino}pyrimidine-5-carbonitrile dihydrochloride] | 110
N[C@@H]1[C@@H]2CC3C[C@H]1C[C@@](CNc1nc(NCc4ccccc4OC(F)(F)F)ncc1[N+](=O)[O-])(C3)C2 (relative stereo) [Example 388] | 3.3
CC(C)N1CCC(N[C@@H]2[C@@H]3CC4C[C@H]2C[C@@](CNc2nc(NCc5ccccc5OC(F)(F)F)ncc2C#N)(C4)C3)CC1 (relative stereo) [Example 246] | 0.31
N#Cc1cnc(NCc2ccccc2OC(F)(F)F)nc1NC[C@]12CC3C[C@H](C1)[C@@H](NC1CCOCC1)[C@@H](C3)C2 (relative stereo) [Example 74] | 0.65
N#Cc1cnc(NCc2ccccc2Cl)nc1NC[C@]12CC3C[C@H](C1)C(N1CCC(N)CC1)[C@@H](C3)C2 (relative stereo) [Example 318] | 0.86
N#Cc1cnc(NCc2ccccc2OC(F)(F)F)nc1NCCC(=O)N1CCCNCC1 [Example 387] | 77
N#Cc1cnc(NCc2ccccc2OC(F)(F)F)nc1NC[C@]12CC3C[C@H](C1)[C@@H](NCc1cccnc1)[C@@H](C3)C2 (relative stereo) [Example 76] | 2.3
CSc1ccccc1CNc1ncc(C#N)c(NC[C@]23CC4C[C@H](C2)[C@@H](NC[C@H]2CC[C@@H](O)CC2)[C@@H](C4)C3)n1 (relative stereo) [Example 264] | 1.9
N#Cc1cnc(NCc2cccc(Cl)c2Cl)nc1NC[C@]12CC3C[C@H](C1)[C@@H](N)[C@@H](C3)C2 (relative stereo) [Example 140] | 2.5
N#Cc1cnc(NCc2ccccc2OC(F)(F)F)nc1NC[C@]12CC3C[C@H](C1)[C@@H](N1CCC(O)C1)[C@@H](C3)C2 (some centres unmarked) [Example 11] | 1
N#Cc1cnc(NCc2ccccc2OC(F)(F)F)nc1NC[C@]12CC3C[C@H](C1)C[C@@](CN)(C3)C2 [Example 57] | 15
N#Cc1cnc(NCc2ccccc2OC(F)(F)F)nc1NCCC(=O)N1CCNCC1 [Example 156] | 67
N#Cc1cnc(NCc2ccccc2Cl)nc1NC[C@]12CC3C[C@H](C1)[C@@H](NC1CCN(C(=O)CO)CC1)[C@@H](C3)C2 [Example 205] | 0.83
N#Cc1cnc(NCc2ccccc2Cl)nc1NC[C@]12CC3C[C@H](C1)[C@@H](NCC1CCN(CC(F)F)CC1)[C@@H](C3)C2 (relative stereo) [Example 357] | 1.2
N#Cc1cnc(NCc2ccccc2Cl)nc1NC[C@]12CC3C[C@H](C1)[C@@H](N[C@H]1CC[C@H](O)CC1)[C@@H](C3)C2 (relative stereo) [Example 60] | 1.1
C[C@]1(O)CC[C@H](CN[C@@H]2[C@@H]3CC4C[C@H]2C[C@@](CNc2nc(NCc5ccccc5OC(F)(F)F)ncc2C#N)(C4)C3)CC1 (relative stereo) [Example 363] | 0.58

More lines, in order of falling IC50, values ahead:

IC50 [nM] | Structure (SMILES)
100 | N#Cc1cnc(NCc2ccccc2OC(F)(F)F)nc1NC[C@@H]1CC[C@@H](N)C1 [Example 126]
89 | N#Cc1cnc(NCc2ccccc2OC(F)(F)F)nc1NC[C@H]1C[C@H](N)C1 [Example 125]
29 | N#Cc1cnc(NCc2ccccc2OC(F)(F)F)nc1NCC1[C@@H]2CC3C[C@H]1C[C@@](CN)(C3)C2 (some centres unmarked) [Example 183]
14 | CC(Nc1ncc(C#N)c(NC[C@]23CC4C[C@H](C2)[C@@H](N)[C@@H](C4)C3)n1)c1ccccc1Cl (relative stereo) [Example 302]
13 | COc1ccc(CO)cc1CNc1ncc(C#N)c(NC[C@]23CC4C[C@H](C2)[C@@H](N)[C@@H](C4)C3)n1 [Example 139]
11 | N#Cc1cnc(NCc2ccccc2Cl)nc1NC[C@]12CC3C[C@H](C1)[C@@H](NCC(=O)N1CCC(O)CC1)[C@@H](C3)C2 (relative stereo) [Example 204]
10 | N#Cc1cnc(NCCc2cccc(Cl)c2)nc1NC[C@]12CC3C[C@H](C1)[C@@H](N)[C@@H](C3)C2 (relative stereo) [Example 292]
7.6 | N[C@@H]1[C@@H]2CC3C[C@H]1C[C@@](CNc1nc(NCc4ccccc4OC(F)(F)F)ncc1C(F)(F)F)(C3)C2 (relative stereo) [Example 178]
5.3 | COc1ccc(Cl)c(CNc2ncc(C#N)c(NC[C@]34CC5C[C@H](C3)[C@@H](N)[C@@H](C5)C4)n2)c1 (relative stereo) [Example 150]
4 | N#Cc1cnc(NCc2ccccc2Cl)nc1NC[C@]12CC3C[C@H](C1)C(N1CCNCC1)[C@@H](C3)C2 (some centres unmarked) [Example 319]
3.8 | N#Cc1cnc(Nc2cccc(Br)c2)nc1NC[C@]12CC3C[C@H](C1)[C@@H](N)[C@@H](C3)C2 [Example 187]
2.3 | N#Cc1cnc(NCc2cccnc2Cl)nc1NC[C@]12CC3C[C@H](C1)[C@@H](N)[C@@H](C3)C2 [Example 165]
2.1 | N[C@@H]1[C@@H]2CC3C[C@H]1C[C@@](CNc1nc(NCc4ccccc4OC(F)(F)F)ncc1F)(C3)C2 (relative stereo) [Example 390]
1.9 | CN(C)[C@@H]1[C@@H]2CC3C[C@H]1C[C@@](CNc1nc(NCc4ccccc4OC(F)(F)F)ncc1C#N)(C3)C2 (relative stereo) [Example 70]
1.7 | COc1ccccc1CNc1ncc(C#N)c(NC[C@]23CC4C[C@H](C2)[C@@H](NCC(O)CCO)[C@@H](C4)C3)n1 (some centres unmarked) [Example 189]
1.6 | N#Cc1cnc(NCc2ccccc2Cl)nc1NC[C@]12CC3C[C@H](C1)[C@@H](NC1CCNCC1F)[C@@H](C3)C2 (relative stereo) [Example 383]
1.6 | N#Cc1cnc(NCCc2ccc(O)cc2)nc1NC[C@]12CC3C[C@H](C1)[C@@H](N)[C@@H](C3)C2 [Example 145]
1.3 | N#Cc1cnc(NCc2ccccc2Cl)nc1NC[C@]12CC3C[C@H](C1)[C@@H](NCCCO)[C@@H](C3)C2 (relative stereo) [Example 28]
0.96 | N#Cc1cnc(NCc2ccccc2Cl)nc1NC[C@]12CC3C[C@H](C1)[C@@H](N1CC(O)C1)[C@@H](C3)C2 [Example 211]
0.7 | C[C@]1(O)CC[C@@H](CN[C@@H]2[C@@H]3CC4C[C@H]2C[C@@](CNc2nc(NCc5ccccc5OC(F)F)ncc2C#N)(C4)C3)CC1 (relative stereo) [Example 371]
0.48 | CSc1ncccc1CNc1ncc(C#N)c(NC[C@]23CC4C[C@H](C2)[C@@H](NC[C@H]2CC[C@H](CO)CC2)[C@@H](C4)C3)n1 (relative stereo) [Example 342]
0.41 | N#Cc1cnc(NCc2ccccc2OC(F)F)nc1NC[C@]12CC3C[C@H](C1)[C@@H](NC[C@H]1CC[C@H](O)CC1)[C@@H](C3)C2 (relative stereo) [Example 348]
0.064 | N#Cc1cnc(NCc2ccccc2OC(F)(F)F)nc1NC[C@]12CC3C[C@H](C1)[C@@H](NC1CCC(N4CCC[C@H]4CO)CC1)[C@@H](C3)C2 (relative stereo) [Example 240]

molecular target: T2, Cytochrome P450 (CYP3A4) (Homo sapiens, UniProt P08684); test: Measurement of cytochrome P450 (CYP3A4) enzyme inhibition activity in human liver microsome (inhibition tests I and II, midazolam substrate); assay type: in vitro ADME; conditions: inhibition test I: 5 μM test compound, 2 μM midazolam, human liver microsome, 37° C. 20 minutes, no preincubation
T2 construct: human liver microsome (0.1 mg protein/mL); from tissue; host or cells: human liver microsomes
Method: Test Method 3: Measurement of Cytochrome P450 (CYP3A4) Enzyme Inhibition Activity i) Inhibition Test I (Calculation of Remaining Rate I)
Using a 96-well plate, 2 μM of a substrate (midazolam), 5 μM of a test compound, and human liver microsome (0.1 mg protein/mL) were incubated at 37° C. for 20 minutes in a total amount of 150 μL of a 100 mM phosphate buffer (pH 7.4) containing 0.1 mM EDTA and 1 mM NADPH. Then, the reaction was stopped by adding 130 μl of an aqueous solution containing 80% acetonitrile. Thereafter, the samples were analyzed by LC/MS/MS, and the remaining rates I were calculated using the following equation 1.
Remaining Rate I(%)=Ai,I/Ao,I×100 (Equation 1)
Ai, I=Amount of produced metabolite after reaction in the presence of the test compound in the inhibition test I Ao, I=Amount of produced metabolite after reaction in the absence of the test compound in the inhibition test I ii) Inhibition Test II (Calculation of Remaining Rate II)
Using a 96-well plate, 5 μM of a test compound and human liver microsome (0.1 mg protein/mL) were incubated at 37° C. for 30 minutes in a total amount of 145 μL of a 100 mM phosphate buffer (pH=7.4) containing 0.1 mM EDTA and 1 mM NADPH. Then, 2 μM of midazolam as the substrate was added thereto at a total amount of 150 μL of and incubated at 37° C. for 20 minutes. After the incubation, the reaction was stopped by adding 130 μL of an aqueous solution containing 80% acetonitrile. Thereafter, the samples were analyzed by LC/MS/MS, and the remaining rate II was calculated using the following equation 2.
Remaining Rate II(%)=Ai,II/Ao,II/(Ai,I/Ao,I)×100 (Equation 2)
Ai, II=Amount of produced metabolite after reaction in the presence of the test compound in the inhibition test II […]=Amount of produced metabolite after reaction in the absence of the test compound in the inhibition test II […]
Ex represents No. of the Example Compounds as described below.

T2 sequence (P08684 whole entry): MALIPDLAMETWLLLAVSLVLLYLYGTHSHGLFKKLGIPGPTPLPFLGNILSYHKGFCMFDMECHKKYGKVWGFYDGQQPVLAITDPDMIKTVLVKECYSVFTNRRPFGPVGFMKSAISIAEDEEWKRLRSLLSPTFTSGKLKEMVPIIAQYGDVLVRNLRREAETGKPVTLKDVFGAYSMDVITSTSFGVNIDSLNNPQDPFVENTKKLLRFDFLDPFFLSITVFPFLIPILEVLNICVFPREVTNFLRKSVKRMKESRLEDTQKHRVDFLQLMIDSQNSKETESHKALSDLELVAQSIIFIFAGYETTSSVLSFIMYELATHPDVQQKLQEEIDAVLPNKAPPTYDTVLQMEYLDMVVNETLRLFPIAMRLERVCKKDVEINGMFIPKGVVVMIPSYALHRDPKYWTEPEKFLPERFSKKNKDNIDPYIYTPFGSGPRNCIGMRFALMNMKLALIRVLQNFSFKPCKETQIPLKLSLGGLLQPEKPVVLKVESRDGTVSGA

I (%) Remaining Rate I [%] | Structure (SMILES)
77 | COc1ccccc1CNc1ncc(C#N)c(NC[C@]23CC4C[C@H](C2)[C@@H](N(C)CCCCO)[C@@H](C4)C3)n1 [Example 107]

same assay, conditions: inhibition test II: 5 μM test compound preincubated 30 minutes with human liver microsome and NADPH, then 2 μM midazolam 20 minutes; relative to test I

II (%) Remaining Rate II [%] | Structure (SMILES)
84 | COc1ccccc1CNc1ncc(C#N)c(NC[C@]23CC4C[C@H](C2)[C@@H](N(C)CCCCO)[C@@H](C4)C3)n1 [Example 107]
